Test results taken from patent US9873704B2, “Heterocyclic compounds and their uses” (Amgen Inc., priority 2009, dated 2018).

The compounds below were run against T1, PI3Kδ (Homo sapiens, UniProt O00329) (assay: PI3Kδ Alphascreen assay).
T1 construct: Full length p110 subunits of PI3k α, β and δ, N-terminally labeled with polyHis tag; polyHis (N); made in house; host or cells: Sf9 insect cells (baculovirus)
Type: biochemical
Protocol: Full length p110 subunits of PI3k α, β and δ, N-terminally labeled with polyHis tag, were coexpressed with p85 with Baculo virus expression vectors in sf9 insect cells. P110/p85 heterodimers were purified by sequential Ni-NTA, Q-HP, Superdex-100 chromatography. Purified α, β and δ isozymes were stored at −20° C. in 20 mM Tris, pH 8, 0.2M NaCl, 50% glycerol, 5 mM DTT, 2 mM Na cholate. […] The γ isozyme was purified by sequential Ni-NTA, Superdex-200, Q-HP chromatography. The γ isozyme was stored frozen at −80° C. in NaH2PO4, pH 8, 0.2M NaCl, 1% ethylene glycol, 2 mM β-mercaptoethanol.
A PI3K Alphascreen® assay (PerkinElmer, Waltham, Mass.) was used to measure the activity of a panel of four phosphoinositide 3-kinases: PI3Kα, PI3Kβ, PI3Kγ, and PI3Kδ. Enzyme reaction buffer was prepared using sterile water (Baxter, Deerfield, Ill.) and 50 mM Tris HCl pH 7, 14 mM MgCl2, 2 mM sodium cholate, and 100 mM NaCl. 2 mM DTT was added fresh the day of the experiment. The Alphascreen buffer was made using sterile water and 10 mM Tris HCl pH 7.5, 150 mM NaCl, 0.10% Tween 20, and 30 mM EDTA. 1 mM DTT was added fresh the day of the experiment. Compound source plates used for this assay were 384-well Greiner clear polypropylene plates containing test compounds at 5 mM and diluted 1:2 over 22 concentrations. Columns 23 and 24 contained only DMSO as these wells comprised the positive and negative controls, respectively. Source plates were replicated by transferring 0.5 uL per well into 384-well Optiplates (PerkinElmer, Waltham, Mass.).
Each PI3K isoform was diluted in enzyme reaction buffer to 2× working stocks. […] PI(4,5)P2 (Echelon Biosciences, Salt Lake City, Utah) was diluted to 10 μM and ATP was diluted to 20 μM. This 2× stock was used in the assays for PI3Kα and PI3Kβ. For assay of PI3Kγ and PI3Kδ, PI(4,5)P2 was diluted to 10 μM and ATP was diluted to 8 μM to prepare a similar 2× working stock. Alphascreen reaction solutions were made using beads from the anti-GST Alphascreen kit (PerkinElmer, Waltham, Mass.). Two 4× working stocks of the Alphascreen reagents were made in Alphascreen reaction buffer. In one stock, biotinylated-IP4 (Echelon Biosciences, Salt Lake City, Utah) was diluted to 40 nM and streptavidin-donor beads were diluted to 80 μg/mL. In the second stock, PIP3-binding protein (Echelon Biosciences, Salt Lake City, Utah) was diluted to 40 nM and anti-GST-acceptor beads were diluted to 80 μg/mL.
10 μL/well of the appropriate substrate 2× stock (containing 20 μM ATP for the PI3Kα and β assays and containing 8 μM ATP for the PI3Kγ and δ assays) was then added to Columns 1-24 of all plates. Plates were then incubated at room temperature for 20 minutes. In the dark, 10 μL/well of the donor bead solution was added to columns 1-24 of the plates to quench the enzyme reaction. The plates were incubated at room temperature for 30 minutes. Still in the dark, 10 μL/well of the acceptor bead solution was added to columns 1-24 of the plates. The plates were then incubated in the dark for 1.5 hours. The plates were read on an Envision multimode Plate Reader (PerkinElmer, Waltham, Mass.) using a 680 nm excitation filter and a 520-620 nm emission filter.

T1 sequence (O00329 whole entry): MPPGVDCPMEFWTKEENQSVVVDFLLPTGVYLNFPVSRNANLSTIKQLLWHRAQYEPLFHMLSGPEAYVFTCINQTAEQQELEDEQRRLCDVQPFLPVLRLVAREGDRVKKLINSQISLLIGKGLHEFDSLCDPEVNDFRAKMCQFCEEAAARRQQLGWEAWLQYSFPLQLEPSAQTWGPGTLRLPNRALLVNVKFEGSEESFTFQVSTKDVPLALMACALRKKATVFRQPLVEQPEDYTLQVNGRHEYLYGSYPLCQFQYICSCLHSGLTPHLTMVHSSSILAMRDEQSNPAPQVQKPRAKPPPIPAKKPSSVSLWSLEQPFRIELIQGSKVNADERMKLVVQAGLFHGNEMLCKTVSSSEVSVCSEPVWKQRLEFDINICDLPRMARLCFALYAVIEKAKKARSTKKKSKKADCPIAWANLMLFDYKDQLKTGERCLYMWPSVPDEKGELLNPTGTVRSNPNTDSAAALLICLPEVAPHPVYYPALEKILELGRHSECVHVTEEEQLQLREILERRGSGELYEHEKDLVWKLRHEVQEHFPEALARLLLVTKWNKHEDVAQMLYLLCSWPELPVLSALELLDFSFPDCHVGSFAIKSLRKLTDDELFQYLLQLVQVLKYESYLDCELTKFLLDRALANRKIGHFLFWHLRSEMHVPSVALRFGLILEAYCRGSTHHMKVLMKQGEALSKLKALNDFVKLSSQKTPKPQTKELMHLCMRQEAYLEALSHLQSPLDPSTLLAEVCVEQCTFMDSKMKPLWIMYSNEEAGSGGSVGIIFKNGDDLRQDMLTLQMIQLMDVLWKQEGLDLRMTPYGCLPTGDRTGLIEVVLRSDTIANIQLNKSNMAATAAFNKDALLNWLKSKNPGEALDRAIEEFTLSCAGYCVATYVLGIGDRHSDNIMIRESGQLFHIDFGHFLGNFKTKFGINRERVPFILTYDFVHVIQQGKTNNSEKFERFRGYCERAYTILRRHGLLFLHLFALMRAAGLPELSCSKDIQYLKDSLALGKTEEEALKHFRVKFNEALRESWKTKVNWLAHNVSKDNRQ
T1 sequence (P27986 whole entry partner): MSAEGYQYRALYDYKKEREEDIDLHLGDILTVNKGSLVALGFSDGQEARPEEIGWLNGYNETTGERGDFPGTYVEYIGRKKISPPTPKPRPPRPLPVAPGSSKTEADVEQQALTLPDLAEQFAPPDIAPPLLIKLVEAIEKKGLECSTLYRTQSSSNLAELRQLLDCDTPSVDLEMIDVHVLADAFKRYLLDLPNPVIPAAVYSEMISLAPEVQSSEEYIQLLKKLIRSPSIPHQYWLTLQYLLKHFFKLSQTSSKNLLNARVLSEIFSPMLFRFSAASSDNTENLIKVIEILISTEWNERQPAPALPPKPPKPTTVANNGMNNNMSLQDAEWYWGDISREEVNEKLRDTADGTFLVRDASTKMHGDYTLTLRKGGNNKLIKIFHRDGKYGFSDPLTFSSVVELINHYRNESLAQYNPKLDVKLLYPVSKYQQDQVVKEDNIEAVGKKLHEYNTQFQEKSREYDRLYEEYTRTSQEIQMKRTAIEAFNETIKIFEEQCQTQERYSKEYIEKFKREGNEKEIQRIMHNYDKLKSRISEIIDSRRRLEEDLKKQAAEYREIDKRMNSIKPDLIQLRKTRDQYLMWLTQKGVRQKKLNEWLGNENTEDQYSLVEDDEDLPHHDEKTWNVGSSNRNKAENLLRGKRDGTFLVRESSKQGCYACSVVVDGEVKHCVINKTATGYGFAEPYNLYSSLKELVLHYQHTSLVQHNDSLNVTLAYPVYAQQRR

Row | Ki | Compound
1 | 7.06 nM | CC(Nc1ncnc(N)c1C#N)c1nc2ccc(F)cc2c(C(=O)N2CCCC2)c1-c1ccccc1 (stereo not drawn) [4-Amino-6-((1-(6-fluoro-3-phenyl-4-(1-pyrrolidinylcarbonyl)-2-quinolinyl)-ethyl)amino)-5-pyrimidinecarbonitrile]
2 | 1.02 nM | CC(Nc1ncnc(N)c1C#N)c1nc2ccc(F)cc2c(C(=O)NCCN2CCOCC2)c1-c1ccccc1 (stereo not drawn) [2-(1-((6-Amino-5-cyano-4-pyrimidinyl)amino)ethyl)-6-fluoro-N-(2-(4-morpholinyl)ethyl)-3-phenyl-4-quinolinecarboxamide]
3 | 1.6 nM | CC(Nc1ncnc(N)c1C#N)c1nc2cccc(Cl)c2cc1-c1ccccn1 [4-amino-6-(((1S, 1R)-1-(5-chloro-3-(2-pyridinyl)-2-quinolinyl)ethyl)-amino)-5-pyrimidinecarbonitrile]
4 | 130 nM | C[C@H](Nc1ncnc(N)c1C#N)c1nc2ccc(F)cc2cc1-c1cccc(S(C)(=O)=O)n1 [(S)-4-Amino-6-(1-(6-fluoro-3-(6-(methylsulfonyl)pyridin-2-yl)quinolin-2-yl)ethylamino)pyrimidine-5-carbonitrile]
5 | 2640 nM | C[C@@H](Nc1ncnc(N)c1C#N)c1nc2cccc(C#N)c2cc1-c1ccccn1 [2-((1R)-1-((6-amino-5-cyano-4-pyrimidinyl)amino)ethyl)-3-(2-pyridinyl)-5-quinolinecarbonitrile]
6 | 0.4 nM | C[C@H](Nc1ncnc(N)c1C#N)c1nc2cccc(Cl)c2cc1-c1ccccn1 [4-Amino-6-(((1S)-1-(5-chloro-3-(2-pyridinyl)-2-quinolinyl)ethyl)amino)-5-pyrimidinecarbonitrile]
7 | 107 nM | N#Cc1c(N)ncnc1NCc1nc2cccc(F)c2cc1-c1ccccc1 [4-Amino-6-((5-fluoro-3-phenylquinolin-2-yl)methylamino)pyrimidine-5-carbonitrile]
8 | 4.15 nM | C[C@H](Nc1ncnc2[nH]cnc12)c1nc2ccc(F)cc2cc1-c1ccccn1 [(S)—N-(1-(6-Fluoro-3-(pyridin-2-yl)quinolin-2-yl)ethyl)-9H-purin-6-amine]
9 | 1.3 nM | C[C@H](Nc1ncnc(N)c1C#N)c1nc2cccc(F)c2c(S(C)(=O)=O)c1-c1ccccc1 [(S)-4-Amino-6-(1-(5-fluoro-4-(methylsulfonyl)-3-phenylquinolin-2-yl)ethylamino)pyrimidine-5-carbonitrile]
10 | 11600 nM | CC(Nc1ccncn1)c1nc2ccc(F)cc2cc1-c1ccccn1 (stereo not drawn) [N-(1-(6-Fluoro-3-(pyridin-2-yl)quinolin-2-yl)ethyl)pyrimidin-4-amine]
11 | 39 nM | CS(=O)(=O)c1ccccc1-c1cc2c(F)cccc2nc1CNc1ncnc(N)c1C#N [4-Amino-6-((5-fluoro-3-(2-(methylsulfonyl)phenyl)quinolin-2-yl)methylamino)pyrimidine-5-carbonitrile]
12 | 2.48 nM | CC(Nc1ncnc(N)c1C#N)c1nc2ccc(F)cc2c([S+]([O-])CCO)c1-c1ccccc1 (stereo in doubt) [4-Amino-6-(1-(6-fluoro-4-((R)-2-hydroxyethylsulfinyl)-3-phenylquinolin-2-yl)ethylamino)pyrimidine-5-carbonitrile]
13 | 59.1 nM | C[C@@H](Nc1ncnc(N)c1C#N)c1nc2ccc(F)cc2c(C#N)c1-c1ccccc1 [2-((1R)-1-((6-Amino-5-cyano-4-pyrimidinyl)amino)ethyl)-6-fluoro-3-phenyl-4-quinolinecarbonitrile]
14 | 320 nM | C[C@H](c1nc2ccc(F)cc2cc1-c1ccccn1)n1nc(C#N)c2c(N)ncnc21 [(R)-4-amino-1-(1-(6-fluoro-3-(pyridin-2-yl)quinolin-2-yl)ethyl)-1H-pyrazolo[3,4-d]pyrimidine-3-carbonitrile]
15 | 1.3 nM | CC(Nc1ncnc(N)c1C#N)c1nc2ccc(F)cc2c(S(C)(=O)=O)c1-c1ccccc1 (stereo not drawn) [4-amino-6-(1-(6-fluoro-4-(methylsulfonyl)-3-phenylquinolin-2-yl)ethylamino)pyrimidine-5-carbonitrile]
16 | 1.38 nM | CC(Nc1ncnc(N)c1C#N)c1nc2ccc(F)cc2c(CS(C)(=O)=O)c1-c1ccccc1 (stereo not drawn) [4-Amino-6-(1-(6-fluoro-4-(methylsulfonylmethyl)-3-phenylquinolin-2-yl)-ethylamino)pyrimidine-5-carbonitrile]
17 | 1.02 nM | CC(Nc1ncnc(N)c1C#N)c1nc2ccc(F)cc2c(C(=O)N2CC[C@H](O)C2)c1-c1ccccc1 (stereo partly drawn) [4-Amino-6-((-1-(6-fluoro-4-(((3S)-3-hydroxy-1-pyrrolidinyl)carbonyl)-3-phenyl-2-quinolinyl)ethyl)amino)-5-pyrimidinecarbonitrile]
18 | 5470 nM | C[C@H](c1nc2ccc(F)cc2cc1-c1cncc(F)c1)n1nc(C#N)c2c(N)ncnc21 [4-amino-1-((R)-1-(6-fluoro-3-(5-fluoropyridin-3-yl)quinolin-2-yl)ethyl)-1H-pyrazolo[3,4-d]pyrimidine-3-carbonitrile]
19 | 466 nM | C[C@@H](Nc1ncnc(N)c1C#N)c1nc2cccc(F)c2c(S(C)(=O)=O)c1-c1ccccc1 [4-amino-6-(((1R)-1-(5-fluoro-4-(methylsulfonyl)-3-phenyl-2-quinolinyl)ethyl)amino)-5-pyrimidinecarbonitrile]
20 | 1.68 nM | CC(Nc1ncnc(N)c1C#N)c1nc2ccc(F)cc2c(CO)c1-c1ccccc1 (stereo not drawn) [4-amino-6-(1-(6-fluoro-4-(hydroxymethyl)-3-phenylquinolin-2-yl)ethylamino)pyrimidine-5-carbonitrile]
21 | 225 nM | CC(Nc1ncnc(N)c1C#N)c1nc2ncccc2cc1-c1ccccn1 (racemic) [4-Amino-6-(((1S, 1R)-1-(3-(2-pyridinyl)-1,8-naphthyridin-2-yl)ethyl)amino)-5-pyrimidinecarbonitrile]
22 | 271 nM | COc1c(-c2ccccc2)c([C@@H](C)Nc2ncnc(N)c2C#N)nc2ccc(F)cc12 [(R)-4-amino-6-(1-(6-fluoro-4-methoxy-3-phenylquinolin-2-yl)ethylamino)pyrimidine-5-carbonitrile]
23 | 7.67 nM | C[C@@H](c1nc2ccc(F)cc2cc1-c1ccccn1)n1nc(C#N)c2c(N)ncnc21 [(S)-4-amino-1-(1-(6-fluoro-3-(pyridin-2-yl)quinolin-2-yl)ethyl)-1H-pyrazolo[3,4-d]pyrimidine-3-carbonitrile]
24 | 470 nM | CC(Nc1ncnc(N)c1C#N)c1nc2ccncc2cc1-c1ccccn1 (racemic) [4-Amino-6-(((1S, 1R)-1-(3-(2-pyridinyl)-1,6-naphthyridin-2-yl)ethyl)amino)-5-pyrimidinecarbonitrile]
25 | 0.741 nM | C[C@H](Nc1ncnc(N)c1C#N)c1nc2ccc(F)cc2c(S(C)(=O)=O)c1-c1ccccc1 [4-amino-6-(((1S)-1-(6-fluoro-4-(methylsulfonyl)-3-phenyl-2-quinolinyl)ethyl)amino)-5-pyrimidinecarbonitrile]
26 | 74.2 nM | CC(Nc1ncnc(N)c1C#N)c1nc2ccc(F)cc2c(C(=O)O)c1-c1ccccc1 (stereo not drawn) [2-(1-(6-Amino-5-cyanopyrimidin-4-ylamino)ethyl)-6-fluoro-3-phenylquinoline-4-carboxylic acid]
27 | 1.78 nM | CC(Nc1ncnc(N)c1C#N)c1nc2ccc(F)cc2c(N2CC(O)C2)c1-c1ccccn1 (stereo not drawn) [4-Amino-6-(1-(6-fluoro-4-(3-hydroxyazetidin-1-yl)-3-(pyridin-2-yl)quinolin-2-yl)ethylamino)pyrimidine-5-carbonitrile]
28 | 2.4 nM | CSc1c(-c2ccccc2)c(C(C)Nc2ncnc(N)c2C#N)nc2ccc(F)cc12 (stereo not drawn) [4-amino-6-((1-(6-fluoro-4-(methylsulfanyl)-3-phenyl-2-quinolinyl)ethyl)amino)-5-pyrimidinecarbonitrile]
29 | 1.56 nM | COC(=O)c1c(-c2ccccc2)c(C(C)Nc2ncnc(N)c2C#N)nc2ccc(F)cc12 (stereo not drawn) [Methyl 2-(1-(6-amino-5-cyanopyrimidin-4-ylamino)ethyl)-6-fluoro-3-phenylquinoline-4-carboxylate]
30 | 102 nM | N#Cc1c(N)ncnc1NCc1nc2cccc(F)c2cc1-c1cccc(F)c1 [4-Amino-6-((5-fluoro-3-(3-fluorophenyl)quinolin-2-yl)methylamino)pyrimidine-5-carbonitrile]
